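Test compounds were applied to cells in 96-well plates for 48 hours at 5 doses. GI50: concentration for 50% inhibition of growth. TGI marks complete inhibition of growth.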
How the values were obtained:
Test in all cases: NCI anticancer screen, dose series, 48 h
[1] = system: A498 renal
[2] = system: OVCAR-3 ovarian
[3] = system: A549 NSCLC
[4] = system: SK-MEL-5 melanoma
[5] = system: OVCAR-5 ovarian
[6] = system: SK-MEL-28 melanoma
[7] = system: MALME-3M melanoma
[8] = system: TK-10 renal
[9] = system: HS 578T breast
[10] = system: NCI-H522 lung
[11] = system: LOX IMVI melanoma
[12] = system: HOP-62 NSCLC
[13] = system: HCT-116 colon
[14] = system: MDA-MB-468 breast
[15] = system: COLO 205 colon
[16] = system: MCF7 breast
[17] = system: BT-549 breast
[18] = system: RPMI-8226 leukemia
[19] = system: OVCAR-4 ovarian
[20] = system: IGROV1 ovarian
[21] = system: MDA-MB-435
[22] = system: CAKI-1 renal
[23] = system: NCI-H23 lung
[24] = system: SR leukemia
[25] = system: SF-539 CNS
[26] = system: OVCAR-8 ovarian
[27] = system: HCC-2998 colon
[28] = system: SW-620 colon
[29] = system: NCI-H226 lung

Work on CN(C)c1nc(NCCNS(=O)(=O)c2ccc(C(=O)/C=C/c3ccc(F)cc3)cc2)nc(N2CCOCC2)n1 yielded a TGI [1] of 24.4 µM, a GI50 [2] of 14.6 µM and a TGI [2] of 28.5 µM. The GI50 [3] was 13.7 µM, the TGI [3] was 27.9 µM and the GI50 [4] was 15.7 µM. For the same molecule, the TGI [4] was 29.2 µM, the GI50 [5] was 13.6 µM and the TGI [5] was 26.8 µM. It also gave a GI50 [6] of 14.9 µM, a TGI [6] of 28.2 µM and a GI50 [7] of 14.6 µM. The TGI [7] was 28.2 µM, the GI50 [8] was 15.3 µM and the TGI [8] was 28.7 µM. The GI50 [9] was 14.6 µM, the TGI [9] was 54.6 µM and the GI50 [10] was 13.3 µM. It also gave a TGI [10] of 26.6 µM, a GI50 [11] of 1.63 µM and a TGI [11] of 3.17 µM. The GI50 [12] was 16.1 µM, the TGI [12] was 31.5 µM and the GI50 [13] was 2.29 µM. The TGI [13] was 5.25 µM, the GI50 [14] was 8.08 µM and the TGI [14] was 22.6 µM. It also gave a GI50 [15] of 14.6 µM, a TGI [15] of 30.2 µM and a GI50 [16] of 2.99 µM. It also gave a TGI [16] of 11.2 µM, a GI50 [17] of 15.1 µM and a TGI [17] of 29.2 µM. For the same molecule, the GI50 [18] was 1.91 µM, the TGI [18] was 5.07 µM and the GI50 [19] was 11.9 µM. It also gave a TGI [19] of 24.7 µM, a GI50 [20] of 2.27 µM and a TGI [20] of 6.18 µM. For the same molecule, the GI50 [21] was 11.6 µM, the TGI [21] was 24.6 µM and the GI50 [22] was 9.5 µM. For the same molecule, the TGI [22] was 21.9 µM, the GI50 [23] was 14.6 µM and the TGI [23] was 28.1 µM. The GI50 [24] was 3.45 µM, the TGI [24] was > 100 µM and the GI50 [25] was 13.2 µM. It also gave a TGI [25] of 25.9 µM, a GI50 [26] of 14.7 µM and a TGI [26] of 28.2 µM. For the same molecule, the GI50 [27] was 16 µM, the TGI [27] was 29.9 µM and the GI50 [28] was 3.39 µM. The TGI [28] was 12.3 µM, the GI50 [29] was 12.3 µM and the TGI [29] was 28.2 µM.
